Laboratory results published in ChEMBL document CHEMBL5331073, “Discovery of novel 7,7-dimethyl-6,7-dihydro-5H-pyrrolo[3,4-d]pyrimidines as ATR inhibitors based on structure-based drug design” (Eur J Med Chem, 2023).
Converted amounts (≈) assume the structure as drawn.

Legend:
[1] = target: Serine/threonine-protein kinase ATR (Homo sapiens, UniProt Q13535); assay: Inhibition of ATR (unknown origin) using peptide as substrate preincubated for 10 mins followed by substrate addition by microplate reader analysis
[2] = MRT (0 to infinity) in Sprague-Dawley rat at 1 mg/kg, iv and measured upto 24 hrs by LC-MS analysis; assay type: ADME, organism-based; settings: in vivo
[3] = Clearance in Sprague-Dawley rat at 1 mg/kg, iv and measured upto 24 hrs by LC-MS analysis; assay type: ADME, organism-based; settings: in vivo
[4] = Volume of distribution at steady state in Sprague-Dawley rat at 1 mg/kg, iv and measured upto 24 hrs by LC-MS analysis; assay type: ADME, organism-based; settings: in vivo, read-out: Vdss
[5] = Half life in Sprague-Dawley rat at 5 mg/kg, po and measured upto 24 hrs by LC-MS analysis; assay type: ADME, organism-based; settings: in vivo
[6] = Tmax in Sprague-Dawley rat at 5 mg/kg, po and measured upto 24 hrs by LC-MS analysis; assay type: ADME, organism-based; settings: in vivo
[7] = Cmax in Sprague-Dawley rat at 5 mg/kg, po and measured upto 24 hrs by LC-MS analysis; assay type: ADME, organism-based; parameters: time < 24 hrs, dose 5 mg/kg, route po; settings: in vivo
[8] = AUCt in Sprague-Dawley rat at 5 mg/kg, po and measured upto 24 hrs by LC-MS analysis; assay type: ADME, organism-based; parameters: time < 24 hrs, dose 5 mg/kg, route po; settings: in vivo
[9] = AUC (0 to infinity) in Sprague-Dawley rat at 5 mg/kg, po and measured upto 24 hrs by LC-MS analysis; assay type: ADME, organism-based; parameters: time < 24 hrs, dose 5 mg/kg, route po; settings: in vivo
[10] = MRT (0 to infinity) in Sprague-Dawley rat at 5 mg/kg, po and measured upto 24 hrs by LC-MS analysis; assay type: ADME, organism-based; settings: in vivo
[11] = Oral bioavailability in Sprague-Dawley rat at 5 mg/kg and measured upto 24 hrs by LC-MS analysis; assay type: ADME, organism-based; settings: in vivo
Cytochrome P450 1A2 = target: T1, Cytochrome P450 1A2 (Homo sapiens, UniProt P05177); assay: Inhibition of CYP1A2 in human liver microsomes using […] as substrate preincubated for 5 mins followed by NADPH addition and measured after 120 mins by LC-MS/MS analysis; assay type: ADME, Microsome
T1 sequence (P05177 whole entry): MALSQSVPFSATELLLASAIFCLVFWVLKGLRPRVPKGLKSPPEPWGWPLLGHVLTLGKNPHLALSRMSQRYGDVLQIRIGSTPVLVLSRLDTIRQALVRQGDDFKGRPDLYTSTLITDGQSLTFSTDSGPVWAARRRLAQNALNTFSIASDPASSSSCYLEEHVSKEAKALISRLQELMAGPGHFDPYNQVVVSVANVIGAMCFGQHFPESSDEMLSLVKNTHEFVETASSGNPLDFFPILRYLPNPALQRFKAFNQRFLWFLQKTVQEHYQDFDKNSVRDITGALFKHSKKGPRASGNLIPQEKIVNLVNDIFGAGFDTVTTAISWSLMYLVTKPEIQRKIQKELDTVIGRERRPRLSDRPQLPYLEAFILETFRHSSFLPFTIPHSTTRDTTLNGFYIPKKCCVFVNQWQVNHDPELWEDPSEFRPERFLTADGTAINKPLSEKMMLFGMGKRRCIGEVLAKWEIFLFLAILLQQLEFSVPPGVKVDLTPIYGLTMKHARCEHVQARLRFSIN

Cytochrome P450 2D6 = Cytochrome P450 2D6 (Homo sapiens, UniProt P10635); assay: Inhibition of CYP2D6 in human liver microsomes using […] as substrate preincubated for 5 mins followed by NADPH addition and measured after 120 mins by LC-MS/MS analysis; assay type: ADME, Microsome
Cytochrome P450 3A4 [12] = target: T2, Cytochrome P450 3A4 (Homo sapiens, UniProt P08684); assay: Inhibition of CYP3A4 in human liver microsomes using midazolam as substrate preincubated for 5 mins followed by NADPH addition and measured after 120 mins by LC-MS/MS analysis; assay type: ADME, Microsome
Cytochrome P450 3A4 [13] = target: T2, Cytochrome P450 3A4; assay: Inhibition of CYP3A4 in human liver microsomes using […] as substrate preincubated for 5 mins followed by NADPH addition and measured after 120 mins by LC-MS/MS analysis; assay type: ADME, Microsome
[14] = Protein binding in human plasma at 1 uM incubated for 6 hrs by dialysis based LC-MS/MS analysis; assay type: ADME, cell-free; settings: read-out: PPB (converted)
SW-620 = assay: Antiproliferative activity against ATM-deficient human SW620 cells assessed as reduction in cell viability incubated for 3 days by MTT assay; assay type: functional, cell-based; settings: SW-620, 72 h
OVCAR-3 = assay: Antiproliferative activity against ATM-deficient human OVCAR-3 cells assessed as reduction in cell viability incubated for 3 days by MTT assay; assay type: functional, cell-based; settings: OVCAR-3, 72 h
HCT-116 [15] = assay: Antiproliferative activity against ATM-proficient human HCT-116 cells assessed as reduction in cell viability incubated for 3 days by MTT assay; assay type: functional, cell-based; settings: HCT-116, 72 h
A549 [16] = assay: Antiproliferative activity against ATM-proficient human A549 cells assessed as reduction in cell viability incubated for 3 days by MTT assay; assay type: functional, cell-based; settings: A549, 72 h
HCT-116 [17] = assay: Antiproliferative activity against ATM-proficient human HCT-116 cells assessed as reduction in cell viability incubated for 3 days in presence of AZD-1390 by MTT assay; assay type: functional, cell-based; settings: HCT-116, 72 h
A549 [18] = assay: Antiproliferative activity against ATM-proficient human A549 cells assessed as reduction in cell viability incubated for 3 days in presence of AZD-1390 by MTT assay; assay type: functional, cell-based; settings: A549, 72 h
HCT-116 [19] = assay: Synergistic antiproliferative activity against ATM-proficient human HCT-116 cells assessed as reduction in cell viability incubated for 3 days in presence of cisplatin by MTT assay; assay type: functional, cell-based; settings: HCT-116, 72 h
HCT-116 [20] = assay: Synergistic antiproliferative activity against ATM-proficient human HCT-116 cells assessed as reduction in cell viability incubated for 3 days in presence of oxaliplatin by MTT assay; assay type: functional, cell-based; settings: HCT-116, 72 h
A549 [21] = assay: Synergistic antiproliferative activity against ATM-proficient human A549 cells assessed as reduction in cell viability incubated for 3 days in presence of cisplatin by MTT assay; assay type: functional, cell-based; settings: A549, 72 h
MCF7 [22] = assay: Antiproliferative activity against human MCF7 cells assessed as reduction in cell viability incubated for 3 days by MTT assay; assay type: functional, cell-based; settings: MCF7, 72 h
MCF7 [23] = assay: Synergistic antiproliferative activity against human MCF7 cells assessed as reduction in cell viability incubated for 3 days in presence of olaparib by MTT assay; assay type: functional, cell-based; settings: MCF7, 72 h
MDA-MB-231 = assay: Synergistic antiproliferative activity against human MDA-MB-231 cells assessed as reduction in cell viability incubated for 3 days in presence of olaparib by MTT assay; assay type: functional, cell-based; settings: MDA-MB-231, 72 h
[24] = Aqueous solubility of compound at pH 7.4 by HPLC-MS/MS analysis; assay type: physicochemical; settings: aqueous medium
[25] = Apparent permeability across basolateral to apical side in human Caco-2 cells by bidirectional permeability assay; assay type: ADME, cell-based
[26] = target: Phosphatidylinositol 4,5-bisphosphate 3-kinase catalytic subunit alpha isoform (Homo sapiens, UniProt P42336); assay: Inhibition of PI3Kalpha (unknown origin) using peptide as substrate preincubated for 10 mins followed by substrate addition by microplate reader analysis
in vitro [27] = settings: human, liver microsomes
in vitro [28] = settings: rat, liver microsomes
in vitro [29] = settings: human, liver microsomes; remark: listed apart in the source
in vitro [30] = settings: rat, liver microsomes; remark: listed apart in the source

T2 sequence (P08684 whole entry): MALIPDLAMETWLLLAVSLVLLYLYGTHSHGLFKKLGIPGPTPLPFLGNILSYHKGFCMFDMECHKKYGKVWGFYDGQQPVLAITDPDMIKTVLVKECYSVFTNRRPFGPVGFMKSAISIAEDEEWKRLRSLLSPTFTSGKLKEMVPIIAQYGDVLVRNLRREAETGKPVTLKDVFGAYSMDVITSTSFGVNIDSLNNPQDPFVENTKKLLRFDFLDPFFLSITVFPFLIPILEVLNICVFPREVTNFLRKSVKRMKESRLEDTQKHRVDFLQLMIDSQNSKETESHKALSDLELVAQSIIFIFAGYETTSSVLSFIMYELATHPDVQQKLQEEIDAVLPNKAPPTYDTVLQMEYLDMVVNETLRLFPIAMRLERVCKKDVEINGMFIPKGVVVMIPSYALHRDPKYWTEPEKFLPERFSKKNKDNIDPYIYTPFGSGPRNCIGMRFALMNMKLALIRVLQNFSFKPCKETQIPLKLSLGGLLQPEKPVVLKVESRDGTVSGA
Sequence of Cytochrome P450 2D6 (P10635 whole entry): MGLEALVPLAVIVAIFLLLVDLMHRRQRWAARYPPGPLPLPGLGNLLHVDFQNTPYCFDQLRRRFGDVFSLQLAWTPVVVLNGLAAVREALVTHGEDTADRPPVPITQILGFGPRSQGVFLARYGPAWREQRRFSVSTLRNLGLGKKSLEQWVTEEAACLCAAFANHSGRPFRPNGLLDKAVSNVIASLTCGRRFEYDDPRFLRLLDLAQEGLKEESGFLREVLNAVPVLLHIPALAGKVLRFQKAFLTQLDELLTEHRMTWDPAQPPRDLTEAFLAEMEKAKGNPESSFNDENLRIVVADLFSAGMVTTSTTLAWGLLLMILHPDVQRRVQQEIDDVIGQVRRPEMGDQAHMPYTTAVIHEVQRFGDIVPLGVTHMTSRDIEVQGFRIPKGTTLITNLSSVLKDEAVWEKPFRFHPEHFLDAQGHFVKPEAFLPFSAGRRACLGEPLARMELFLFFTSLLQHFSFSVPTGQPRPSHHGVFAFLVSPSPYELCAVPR
Sequence of Serine/threonine-protein kinase ATR (Q13535 whole entry): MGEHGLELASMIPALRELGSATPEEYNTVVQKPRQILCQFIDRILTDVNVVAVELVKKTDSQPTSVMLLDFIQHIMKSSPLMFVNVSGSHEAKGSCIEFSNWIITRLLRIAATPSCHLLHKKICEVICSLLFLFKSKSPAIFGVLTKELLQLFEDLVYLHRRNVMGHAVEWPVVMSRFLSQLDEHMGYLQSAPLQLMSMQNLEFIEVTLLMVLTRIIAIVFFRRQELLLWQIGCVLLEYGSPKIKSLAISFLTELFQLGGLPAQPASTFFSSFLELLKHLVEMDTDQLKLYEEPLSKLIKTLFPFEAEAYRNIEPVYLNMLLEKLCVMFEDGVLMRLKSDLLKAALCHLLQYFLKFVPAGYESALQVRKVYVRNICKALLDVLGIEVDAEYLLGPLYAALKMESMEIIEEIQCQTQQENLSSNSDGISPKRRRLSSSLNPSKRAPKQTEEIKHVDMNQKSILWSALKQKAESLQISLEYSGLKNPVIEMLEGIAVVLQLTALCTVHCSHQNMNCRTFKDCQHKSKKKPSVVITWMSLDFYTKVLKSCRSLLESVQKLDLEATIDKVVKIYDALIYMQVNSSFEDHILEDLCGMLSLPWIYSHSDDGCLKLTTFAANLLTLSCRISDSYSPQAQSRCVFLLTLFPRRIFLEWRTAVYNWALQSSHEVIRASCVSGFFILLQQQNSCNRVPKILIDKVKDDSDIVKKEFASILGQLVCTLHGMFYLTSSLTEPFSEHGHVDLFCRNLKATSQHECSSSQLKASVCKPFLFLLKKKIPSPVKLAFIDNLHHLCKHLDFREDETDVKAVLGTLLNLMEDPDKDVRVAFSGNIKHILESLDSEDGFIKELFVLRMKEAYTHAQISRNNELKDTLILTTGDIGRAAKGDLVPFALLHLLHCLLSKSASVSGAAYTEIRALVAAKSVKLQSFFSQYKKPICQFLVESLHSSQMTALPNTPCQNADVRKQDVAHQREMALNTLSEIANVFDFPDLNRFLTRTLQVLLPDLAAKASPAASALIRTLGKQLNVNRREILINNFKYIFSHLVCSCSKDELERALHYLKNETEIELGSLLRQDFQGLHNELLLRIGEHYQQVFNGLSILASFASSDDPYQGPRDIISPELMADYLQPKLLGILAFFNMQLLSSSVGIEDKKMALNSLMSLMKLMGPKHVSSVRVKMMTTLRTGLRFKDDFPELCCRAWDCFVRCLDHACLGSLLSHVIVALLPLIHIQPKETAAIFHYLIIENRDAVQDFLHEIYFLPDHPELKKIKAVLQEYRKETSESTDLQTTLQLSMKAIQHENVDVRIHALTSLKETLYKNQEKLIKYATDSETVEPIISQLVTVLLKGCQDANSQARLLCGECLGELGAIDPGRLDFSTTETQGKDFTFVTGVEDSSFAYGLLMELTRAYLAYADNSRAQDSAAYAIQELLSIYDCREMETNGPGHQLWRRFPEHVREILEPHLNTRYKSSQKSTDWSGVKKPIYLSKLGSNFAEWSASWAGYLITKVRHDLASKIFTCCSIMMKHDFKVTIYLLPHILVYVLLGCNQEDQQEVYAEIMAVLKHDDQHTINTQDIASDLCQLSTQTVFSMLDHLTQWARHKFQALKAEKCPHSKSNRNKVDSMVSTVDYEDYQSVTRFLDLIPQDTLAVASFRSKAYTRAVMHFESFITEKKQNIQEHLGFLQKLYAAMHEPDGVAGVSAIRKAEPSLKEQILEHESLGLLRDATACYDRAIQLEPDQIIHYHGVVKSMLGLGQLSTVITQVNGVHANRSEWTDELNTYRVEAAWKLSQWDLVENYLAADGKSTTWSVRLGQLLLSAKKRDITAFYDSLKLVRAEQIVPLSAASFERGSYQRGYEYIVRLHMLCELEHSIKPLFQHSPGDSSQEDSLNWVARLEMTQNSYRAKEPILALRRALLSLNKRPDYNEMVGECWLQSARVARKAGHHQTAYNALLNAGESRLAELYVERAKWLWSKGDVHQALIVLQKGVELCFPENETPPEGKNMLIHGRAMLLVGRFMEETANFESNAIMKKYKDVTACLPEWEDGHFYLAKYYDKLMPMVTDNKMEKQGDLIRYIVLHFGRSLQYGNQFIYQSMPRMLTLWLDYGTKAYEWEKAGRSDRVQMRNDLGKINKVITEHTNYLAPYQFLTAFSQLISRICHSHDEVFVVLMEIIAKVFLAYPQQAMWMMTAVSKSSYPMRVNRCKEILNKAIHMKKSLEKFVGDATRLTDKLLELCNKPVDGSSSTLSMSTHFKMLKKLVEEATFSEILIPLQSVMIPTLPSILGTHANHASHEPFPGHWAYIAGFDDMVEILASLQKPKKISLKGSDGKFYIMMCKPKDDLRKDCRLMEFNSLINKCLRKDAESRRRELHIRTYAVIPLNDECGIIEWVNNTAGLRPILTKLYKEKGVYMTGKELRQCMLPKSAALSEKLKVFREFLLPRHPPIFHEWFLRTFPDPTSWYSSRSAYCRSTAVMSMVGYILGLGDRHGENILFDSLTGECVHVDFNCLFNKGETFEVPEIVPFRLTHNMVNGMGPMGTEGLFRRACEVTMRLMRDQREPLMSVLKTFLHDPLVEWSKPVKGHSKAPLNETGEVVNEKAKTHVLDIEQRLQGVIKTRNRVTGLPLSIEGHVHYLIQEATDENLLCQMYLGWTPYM
Sequence of Phosphatidylinositol 4,5-bisphosphate 3-kinase catalytic subunit alpha isoform (P42336 whole entry, canonical isoform): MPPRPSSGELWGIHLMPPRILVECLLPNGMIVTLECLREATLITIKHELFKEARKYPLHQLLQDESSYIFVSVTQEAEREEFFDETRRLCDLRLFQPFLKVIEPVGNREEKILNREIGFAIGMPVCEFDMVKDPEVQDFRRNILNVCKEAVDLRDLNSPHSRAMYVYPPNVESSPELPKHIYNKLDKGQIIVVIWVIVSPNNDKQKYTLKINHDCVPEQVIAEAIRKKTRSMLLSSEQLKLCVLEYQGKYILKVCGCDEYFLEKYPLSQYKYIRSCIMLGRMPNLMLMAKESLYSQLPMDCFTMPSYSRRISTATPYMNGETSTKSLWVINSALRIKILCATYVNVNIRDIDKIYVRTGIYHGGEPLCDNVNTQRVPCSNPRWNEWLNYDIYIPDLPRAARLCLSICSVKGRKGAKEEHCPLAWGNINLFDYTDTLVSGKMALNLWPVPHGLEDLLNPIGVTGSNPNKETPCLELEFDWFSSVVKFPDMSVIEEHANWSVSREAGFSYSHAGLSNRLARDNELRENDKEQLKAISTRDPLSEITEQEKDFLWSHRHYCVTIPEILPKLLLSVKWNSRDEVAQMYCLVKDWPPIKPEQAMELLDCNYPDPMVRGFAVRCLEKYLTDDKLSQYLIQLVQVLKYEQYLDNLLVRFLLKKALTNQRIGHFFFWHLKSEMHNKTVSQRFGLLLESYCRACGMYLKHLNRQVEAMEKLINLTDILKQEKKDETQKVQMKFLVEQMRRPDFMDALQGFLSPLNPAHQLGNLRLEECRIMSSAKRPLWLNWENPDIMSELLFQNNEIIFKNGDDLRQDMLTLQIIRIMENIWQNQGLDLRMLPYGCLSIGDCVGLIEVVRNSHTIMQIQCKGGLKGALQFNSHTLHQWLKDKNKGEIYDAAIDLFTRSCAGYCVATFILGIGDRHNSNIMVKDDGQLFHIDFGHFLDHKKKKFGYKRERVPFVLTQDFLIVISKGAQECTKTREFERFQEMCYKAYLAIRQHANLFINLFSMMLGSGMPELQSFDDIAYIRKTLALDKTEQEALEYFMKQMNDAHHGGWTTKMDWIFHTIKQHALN

Row | IC50 [1] | MRT inf [2] | clearance [3] | Vd [4] | half-life [5] | Tmax [6] | Cmax [7] | AUC(0-t) at 24 h [8] | AUC(0-inf) [9] | MRT inf [10] | bioavailability [11] | IC50 (Cytochrome P450 1A2) | IC50 (Cytochrome P450 2D6) | IC50 (Cytochrome P450 3A4 [12]) | IC50 (Cytochrome P450 3A4 [13]) | fraction unbound at 6 h, 1 µM [14] | IC50 (SW-620) | IC50 (OVCAR-3) | IC50 (HCT-116 [15]) | IC50 (A549 [16]) | SMILES | also measured
1 | 0.003 µM | 1.45 h | 0.852 L/h/kg | 1.24 L/kg | 2.66 h | 2 h | 0.282 µg/mL | 1.62 µg·h/mL | 1.75 µg·h/mL | 4.26 h | 30% | > 10 µM | > 10 µM | 1 µM | 10 µM | 0.003 | 0.095 µM | 0.098 µM | 0.041 µM | 0.302 µM | C[C@@H]1COCCN1c1nc(-c2cccc3[nH]ccc23)nc2c1CN(C(=O)c1cccc(S(C)(=O)=O)c1)C2(C)C | IC50 (HCT-116 [17]): 0.001 µM; IC50 (A549 [18]): 0.013 µM; IC50 (HCT-116 [19]): 0.024 µM; IC50 (HCT-116 [20]): 0.013 µM; IC50 (A549 [21]): 0.28 µM; IC50 (MCF7 [22]): 0.873 µM; IC50 (MCF7 [23]): 0.328 µM; IC50 (MDA-MB-231): 0.435 µM; solubility [24]: 15.4 µM (≈ 8.4 µg/mL); Papp B→A [25]: 167 nm/s; IC50 [26]: 1 µM; microsomal CLint at 1 h, 1 µM (in vitro [27]): 407 µL/min/mg; microsomal CLint at 1 h, 1 µM (in vitro [28]): 66.2 µL/min/mg; CLint scaled at 1 h, 1 µM (in vitro [29]): 23.1 L/h/kg; CLint scaled at 1 h, 1 µM (in vitro [30]): 7.14 L/h/kg
2 | 0.005 µM | 2.19 h | 0.358 L/h/kg | 0.785 L/kg | 3.81 h | 1.67 h | 1.29 µg/mL | 5.7 µg·h/mL | 6.17 µg·h/mL | 4.21 h | 41.6% | > 10 µM | > 10 µM | 1 µM | 1 µM | 0.001 | 0.145 µM | 0.127 µM | 0.196 µM | 0.741 µM | C[C@@H]1COCCN1c1nc(-c2cccc3[nH]ccc23)nc2c1CN(C(=O)c1ccc3c(c1)OCO3)C2(C)C | IC50 (HCT-116 [17]): 0.084 µM; IC50 (A549 [18]): 0.127 µM; IC50 (HCT-116 [19]): 0.093 µM; IC50 (HCT-116 [20]): 0.067 µM; IC50 (A549 [21]): 0.439 µM; IC50 (MCF7 [22]): 0.73 µM; IC50 (MCF7 [23]): 0.347 µM; IC50 (MDA-MB-231): 0.279 µM; solubility [24]: 0.34 µM (≈ 0.174 µg/mL); Papp B→A [25]: 23 nm/s; IC50 [26]: 1 µM; microsomal CLint at 1 h, 1 µM (in vitro [27]): 53.2 µL/min/mg; microsomal CLint at 1 h, 1 µM (in vitro [28]): 35.3 µL/min/mg; CLint scaled at 1 h, 1 µM (in vitro [29]): 3.02 L/h/kg; CLint scaled at 1 h, 1 µM (in vitro [30]): 3.82 L/h/kg
